Here are results for 12 compounds from US8673620B2, “Radioresistant alga of the Coccomyxa genus” (priority 2010, dated 2014).

Series [1] has as its system Coccomyxa actinabiotis. Format: cell-based. Conditions: after one day; 250 mg fresh mass of microalgae from BBM culture. As for the experimental part: Another experiment was carried out by placing 250 mg of fresh mass of microalgae originating from cultures in BBM medium in the presence of […] of demineralized water which has a composition similar to that of the water from the spent fuel storage pools, namely pH 5.5, conductivity 1.2 μS/cm, containing 280 Bq/l of ^60Co, 530 Bq/l of ^58Co, 66 Bq/l of ^110mAg, 1460 Bq/l of ^124Sb, 1180 Bq/l of ^51Cr, 120 Bq/l of ^65Zn, […] and also tritium (260 000 Bq/l) and ^14C (10 000 Bq/l).

In series [2] the test system is Coccomyxa actinabiotis. Briefly: Extraction of bound metals from the microalgae with water or HCl. The series is classed as cell-based. As for the experimental part: Experiments in which the metals bound by the algae are solubilized were carried out by incubating these algae (70 mg of fresh matter) in 5 ml of demineralized water, or of demineralized water supplemented with HCl at various concentrations. In neutral medium, the metals are not extracted.
The cations most retained are ^60Co, ^108mAg and ^110mAg. They remain bound to the cell for low concentrations of HCl (pH 4.5 to 2.5). They begin to be released exponentially below a threshold pH of 2.5, Co being the most solidly bound since it is at most 35% extracted after 6 days of exposure at pH 0.5, whereas Ag is 90% extracted under the same conditions. At pH 1.5, 10% of Ag and 2% of Co are extracted after 6 days of exposure.

In series [3] the test system is Coccomyxa actinabiotis. The series can be described thus: Extraction of bound metals from the microalgae with 0.1 M EDTA pH 4.5. The series is classed as cell-based. To be noted: 0.1 M EDTA pH 4.5, 2 days of exposure. As for the experimental part: Other experiments were carried out in the presence of a 0.1 M solution of EDTA with a pH of 4.5. Under these conditions, 35% of the ^51Cr contained in the algae, but only 1% of the ^60Co and less than 0.5% of ^108mAg and ^116mAg, are extracted after 2 days of exposure.

In series [4] the test system is Coccomyxa actinabiotis. The series can be described thus: Transported decontamination of storage pool water, 24 h contact. Conditions: 50 ml water, 9×10^8 cells (140 mg fresh mass). Format: cell-based. As for the experimental part:
Water originating from a spent nuclear element storage pool was brought into contact with Coccomyxae actinabiotis(50 ml of water in contact with 9×10^8 cells, i.e. 140 mg of algae by fresh mass, originating from culture and rinsed beforehand three times with Milli-Q water).
Table V below indicates the initial composition of the water, according to the total γ-activity measured and the γ-activity measured per radionuclide, and the percentage of γ-emitting radionuclides bound by the algae at 24 h.

Series [5] deals with Coccomyxa actinabiotis. Briefly: Maximum metal concentrations tolerated (one week exposure to Ag or Co). Format: cell-based. On the procedure: The limiting doses supported by Coccomyxa actinabiotis were investigated by exposure of the algae to silver or to cobalt for one week (20 mg of microalgae (fresh mass) in 100 ml of deionized water containing Ag or Co ions at various concentrations).

Series [6] relates to Coccomyxa actinabiotis. Briefly: Growth in the presence of cobalt. Format: cell-based. The text has this: However, the Coccomyxa actinabiotis microalga does grow in the presence of 10^−4 mol/l of cobalt.
A further series concerns Deinococcus radiodurans. To be noted: John et al. 2000; cited from earlier work.
Series [7] concerns Coccomyxa actinabiotis. The series can be described thus: Exposure to heavy water: respiration and photosynthesis of the algae. To be noted: 24 h and 48 h in 50%, 80% and 100% D2O in the dark; 24 h light in 50% D2O. The series is classed as cell-based.
The subject of a further series is organisms. Conditions: Ratte 1999; cited from earlier work.
Series [8] deals with Coccomyxa actinabiotis. Briefly: Kinetics of binding and incorporation of silver by algae with or without mucilage. Format: cell-based. On the procedure: Two series of experiments were carried out: one with algae having a coating of mucilage, the thickness of which, evaluated by optical microscopy, is about 1 μm or more (“algae with mucilage”), the other with algae cultured in BBM medium and having little or no mucilage (“algae without mucilage”).
20 mg of algae (compacted fresh mass) and 90 ml of solution of Ag^+ at various concentrations are introduced into Erlenmeyer flasks. The 20 mg of algae are prepared as follows: sample taken from a round-bottomed culture flask, centrifugation for 20 minutes at 3000 rpm, washing twice in demineralized water (suspension, centrifugation). The culture medium is thus removed and there is no risk of it complexing the silver.
The algae without mucilage are brought into contact with solutions containing 0.11 mg/L and 5.5 mg/L of Ag^+.
The algae with mucilage are brought into contact with solutions containing 22 μg/L, 1.1 mg/L and 55 mg/L of Ag^+.
The Erlenmeyer flasks are placed on illuminated shakers and samples of 5 ml are taken for various exposure times in order to monitor the binding kinetics for each of the initial concentrations of silver. The samples are centrifuged for 10 minutes at 4500 rpm in order to separate the algae which have concentrated the metal. The metal content is then analyzed in the pellet (algae) and in the supernatant.

On to `[51Cr]` [^51Cr], for which, in the series with Coccomyxa actinabiotis [1], the “percentage of isotope fixed” value was 48%. Besides, the “metal extracted from algae” value in the series with Coccomyxa actinabiotis [2] (pH 0.5, 6 days of exposure) is given as at most 25%. Also, in the series with Coccomyxa actinabiotis [3], the “metal contained in the algae extracted” value is on record as 35%.

As to `[Mn]` [^54Mn], in the series with Coccomyxa actinabiotis [1], the “percentage of isotope fixed” value is recorded as 90%. The “% binding by the algae” value with Coccomyxa actinabiotis [4] is given as 100%.

Regarding `[58Co]` [^58Co], the “percentage of isotope fixed” value with Coccomyxa actinabiotis [1] turned out to be 94%.

Regarding `[60Co]` [^60Co], the “percentage of isotope fixed” value in the series on Coccomyxa actinabiotis [1] was found to be 94%. The “% binding by the algae” value in the series on Coccomyxa actinabiotis [4] was 72%. Besides, the “metal contained in the algae extracted” value in the series with Coccomyxa actinabiotis [3] was 1%.

As for `[65Zn]` [^65Zn], the “percentage of isotope fixed” value with Coccomyxa actinabiotis [1] turned out to be 100%.

With `[110Ag]` [^110mAg], in the series with Coccomyxa actinabiotis [1], the “percentage of isotope fixed” value amounted to 100%. Besides, the “% binding by the algae” value in the series with Coccomyxa actinabiotis [4] was 100%.

Regarding `[124Sb]` [^124Sb], the “percentage of isotope fixed” value in the series with Coccomyxa actinabiotis [1] worked out at 30%.

In the case of `[137Cs]` [^137Cs], the “% binding by the algae” value in the series on Coccomyxa actinabiotis [4] is recorded as 100%.

With `[U]` [^238U], in the series on Coccomyxa actinabiotis [4], the “% binding by the algae” value was 95%.

For `[Co+2]` [cobalt], the entries for the “cobalt intolerance threshold (Co2+ concentration)” value in the series with Coccomyxa actinabiotis [5] (with mucilage) and in the series on Coccomyxa actinabiotis [5] (without mucilage) were over 800 mg/L and over 50 mg/L, respectively. Also, the “cobalt concentration in the presence of which the microalga grows” value in the series with Coccomyxa actinabiotis [6] was 10^−4 mol/l. Besides, the “metal extracted from algae” value in the series on Coccomyxa actinabiotis [2] (pH 0.5, 6 days of exposure) is listed as “at most 35%”; in the series on Coccomyxa actinabiotis [2] (pH 1.5, 6 days of exposure), 2%. Moreover, the “cobalt concentration inhibiting growth” value in the series on Deinococcus radiodurans is on record as 5 ppm.

Turning to `[2H]O[2H]` [heavy water], in the series on Coccomyxa actinabiotis [7], the “effect on respiration and photosynthesis of the algae” value is “no effect”.

On to `[Ag]` [silver], for which the “extracellular silver concentration withstood” value in the series with Coccomyxa actinabiotis [5] (Coccomyxae actinabiotis with mucilage) is “at least 50 mg/L”. Also, the “silver concentration at which algae do not survive” value in the series with Coccomyxa actinabiotis [5] (Coccomyxae actinabiotis without mucilage) is on record as “greater than 250 μg/L”. The “concentration at which silver is generally toxic” value with organisms is recorded as 10^−7-10^−5 mol/l. Moreover, the “silver bound at the plateau” value is on record as 20% in the series with Coccomyxa actinabiotis [8] (algae with mucilage, initial concentration 55 mg/l) and 75% in the series on Coccomyxa actinabiotis [8] (algae without mucilage, initial concentration 5.5 mg/l). Besides, the “metal extracted from algae” value came to 90% in the series with Coccomyxa actinabiotis [2] (pH 0.5, 6 days of exposure) and 10% with Coccomyxa actinabiotis [2] (pH 1.5, 6 days of exposure).
